Measured values: patent US11725020B2, “Prodrugs of a CDK inhibitor for treating cancers” (priority 2019, dated 2023)
Entries after “also recorded” stand apart in the source; their conditions may differ.

Assays:
[1] = Toxicokinetic study in rats: TK study, plasma AT7519 concentration; assay type: in vivo, Male SD (Sprague Dawley) rats; details: male, Sprague-Dawley, iv; rat plasma, I.V., 0.039 mmol/kg
Procedure: (§1) Male SD (Sprague Dawley) rats of body weight 220 to 240 g were maintained under standard conditions and randomized into three groups. On day 0 (initial day), all the animals were given one of the three compounds intravenously. Dose was calculated in mmol/kg.
(b) TK study: The remaining animals were randomized into three groups, with 6 in each group. […] TK analysis was conducted as follows: Blood samples were collected at time points of 2 min, 10 min, 1 h, 2 h, and 6 h into sample tube (heparinized).

[2] = test system: SW620; details: read-out: antiproliferative IC50; cited from earlier work
[3] = test system: MM.1R; details: 48 hours, read-out: cytotoxicity IC50; cited from earlier work
[4] = test system: peripheral blood mononuclear cells (PBMNC); details: cited from earlier work
[5] = test system: U266; details: U266, 48 hours; read-out: cytotoxicity IC50; cited from earlier work
[6] = test system: HCT116 colon cancer xenograft; details: 9.1 mg/kg twice daily, early-stage and advanced-stage s.c. tumors; cited from earlier work
[7] = test system: non-CDK kinases; details: with the exception of GSK3β; cited from earlier work
[8] = Toxicity study in mice: toxicokinetics, plasma AT7519 concentration; assay type: in vivo, Male mice (BABL/c); details: for plasma AT7519 exposures compared with AT7519 dosing: i.v., compound 11 0.062 mmol/kg, compound 12 0.124 mmol/kg, AT7519 0.031 mmol/kg
Procedure: (§2) Male mice (BABL/c) of 20 to 22 g were maintained under standard conditions and randomized into groups. […] Doses were calculated and expressed in mmol/kg-body weight, and drug tolerability, pharmacokinetics, and body weight effect were assessed.
Blood samples were collected at 2 min, 10 min, 1 h, and 4 h. Concentration of T7519 was analyzed in each sample using LC-MS/MS method. The results are summarized in Table 3, and the concentration-time curves are illustrated in FIG. 1.

[9] = test system: human MM xenograft; details: 15 mg/kg; cited from earlier work
[10] = 32.4 mg/m^2; cited from earlier work
[11] = Toxicity study in mice: body weight after a single i.v. dose; assay type: in vivo, Male mice (BABL/c)
Procedure: as §2
Clinical observations were made in the following schedule: continuous observation in the first four hours after dosing, and then twice daily, at one week time, and at day 14. The parameters for observation included animal's physical and mental behaviors, autonomous activity, hair, gland secretion, feces, and death. Body temperature was taken at pre-dosing, and on days 3, 5, 7, and 10 post-dosing.
The body weights of the animals are summarized in Table 4, and the trend lines for animal body weight changes in each group are given in FIG. 2. The body weight was average weight of all the animals in the group from a single measurement.

[12] = Toxicokinetic study in rats: dose exploration; assay type: in vivo, Male SD (Sprague Dawley) rats; details: rat, i.v., one animal
Procedure: as §1
(a) Dose exploration: One animal from each group was given the preset high dose of each compound.

[13] = human, in vivo; cited from earlier work
[14] = Toxicity study in mice: tolerability after i.v. administration; assay type: in vivo; details: for toxicity compared with AT7519: 2-fold (11) and 4-fold (12) molar-equivalents of the AT7519 threshold level
Procedure: as §2

[15] = test system: MM.1S; details: 48 hours, read-out: cytotoxicity IC50; cited from earlier work
[16] = test system: MCF-7; details: read-out: antiproliferative IC50; cited from earlier work
[17] = test system: HT29 colon cancer xenograft; details: 9.1 mg/kg twice daily, early-stage and advanced-stage s.c. tumors; cited from earlier work
[18] = male, BALB/c, mouse, plasma, iv, I.V., 0.031 mmol/kg
[19] = single i.v. dose 0.031 mmol/kg on day 0, group average
[20] = single i.v. dose 0.062 mmol/kg on day 0, group average
[21] = single i.v. dose 0.124 mmol/kg on day 0, group average

O=C(NC1CCNCC1)c1n[nH]cc1NC(=O)c1c(Cl)cccc1Cl [AT7519, 4-(2,6-Dichlorobenzamido)-N-(4-piperidinyl)-1H-pyrazole-3-carboxamide]
concentration at 2 min [1]: 19100 ng/mL
concentration at 10 min [1]: 4600 ng/mL
concentration at 1 h [1]: 814 ng/mL
concentration at 4 h [1]: 554 ng/mL
concentration at 6 h [1]: 148 ng/mL
IC50 [2]: 940 nM
IC50 [3]: > 2000 nM
cytotoxicity in PBMNC [4]: does not induce cytotoxicity
IC50 [5]: 500 nM
effect on tumors [6]: tumor regression
activity against all non-CDK kinases [7]: inactive
concentration at 2 min [8, 18]: 10200 ng/mL
concentration at 10 min [8, 18]: 1840 ng/mL
concentration at 1 h [8, 18]: 489 ng/mL
concentration at 4 h [8, 18]: 47 ng/mL
median overall survival [9]: prolong the median overall survival
tumor growth [9]: inhibit tumor growth
DLT among the initial three patients [10]: one patient experienced DLT (grade 3 fatigue)
DLT in two additional patients [10]: both of whom experienced DLTs (febrile neutropenia and grade 3 hypokalemia and mucositis)
Body weight (g) Day 0 [11, 19]: 19.44 g
Body weight (g) Day 1 [11, 19]: 19.53 g
Body weight (g) Day 2 [11, 19]: 19.45 g
Body weight (g) Day 4 [11, 19]: 20.94 g
Body weight (g) Day 7 [11, 19]: 20.83 g
Body weight (g) Day 10 [11, 19]: 20.63 g
Animal death ([12]; 0.049 mmol/kg): already at their lethal doses; also recorded: Died immediately post-dosing
AEs of CTCAE grade 1 severity [13]: 46.7%
AEs of CTCAE grade 2 severity [13]: 37.8%
patients with at least one treatment-related AE [13]: 82.1%
treatment-emergent AE anorexia [13]: 39.3%
treatment-emergent AE constipation [13]: 32.1%
treatment-emergent AE fatigue [13]: 42.9%
treatment-emergent AE hypotension [13]: 25.0%
treatment-emergent AE nausea [13]: 50.0%
treatment-emergent AE peripheral edema [13]: 25.0%
treatment-emergent AE pyrexia [13]: 25.0%
treatment-emergent AE vomiting [13]: 39.3%
threshold lethal dose ([14]; male, BALB/c, mouse, in vivo, iv): 0.031 mmol/kg
Death rate (%) ([14]; mice, i.v., 0.031 mmol/kg): 20%
Number of deaths ([14]; mice, i.v., 0.031 mmol/kg, 20 animals in group): 4
Death rate (%) ([14]; mice, i.v., 0.039 mmol/kg): 100%
IC50 [15]: 500 nM
IC50 [16]: 40 nM
effect on tumors [17]: tumor regression

O=C(NC1CCNCC1)c1nn(COP(=O)([O-])[O-])cc1NC(=O)c1c(Cl)cccc1Cl.[Na+].[Na+] [Compound 11]
plasma AT7519 exposures compared with AT7519 dosing [8]: much higher
Body weight (g) Day 0 [11, 20]: 19.16 g
Body weight (g) Day 1 [11, 20]: 18.58 g
Body weight (g) Day 2 [11, 20]: 18.83 g
Body weight (g) Day 4 [11, 20]: 19.95 g
Body weight (g) Day 7 [11, 20]: 20.16 g
Body weight (g) Day 10 [11, 20]: 20.52 g
Animal death ([12]; 0.055 mmol/kg, listed as compound 11, phosphate disodium Salt): already at their lethal doses
Animal death ([12]; 0.055 mmol/kg, phosphate disodium Salt): Died at 2 min post-dosing
Death rate (%) ([14]; mice, i.v., 0.062 mmol/kg): 0%
toxicity compared with AT7519 ([14]; mice, i.v.): much less toxic than AT7519

COC(=O)[C@H](C)NP(=O)(Oc1ccccc1)N1CCC(NC(=O)c2n[nH]cc2NC(=O)c2c(Cl)cccc2Cl)CC1 (stereo partly drawn) [Compound 12, N-((4-(4-(2,6-dichlorobenzamido)-1H-pyrazole-3-carboxamido)-1-piperidinyl)(phenoxy)phosphinyl)-L-alanine methyl Ester]
plasma AT7519 exposures compared with AT7519 dosing [8]: much higher
Body weight (g) Day 0 [11, 21]: 19.75 g
Body weight (g) Day 1 [11, 21]: 18.70 g
Body weight (g) Day 2 [11, 21]: 19.17 g
Body weight (g) Day 4 [11, 21]: 19.95 g
Body weight (g) Day 7 [11, 21]: 20.79 g
Body weight (g) Day 10 [11, 21]: 21.30 g
Animal death ([12]; 0.125 mmol/kg): Behaved normally
Animal death ([12]; 0.125 mmol/kg, listed as compound 12): did not induce the animal death
Death rate (%) ([14]; mice, i.v., 0.124 mmol/kg): 0%
toxicity compared with AT7519 ([14]; mice, i.v.): much less toxic than AT7519
